SMILES strings stand for the structures.

The assay relates to monocytic THP1 cells infected with HIV VSV-G pseudotyped GFP-NEF reporter virus. Briefly: cells. The assay is classed as cell-based. The settings on record: Human immunodeficiency virus 1, THP-1, 24 h.
For orientation: EC50 means the concentration at which the effect is half-maximal. A low value points to an effect from little substance. As to `C=C1c2c(Oc3c(C)cc(/C=C/C#N)cc3C)nc(NC34CC(C#N)(C3)C4)nc2C(=O)N1CCCCO` [Compound 270, (E)-3-((4-(4-(2-cyanovinyl)-2,6-dimethylphenoxy)-6-(4-hydroxybutyl)-5-methylene-7-oxo-6,7-dihydro-5H-pyrrolo[3,4-d]pyrimidin-2-yl)amino)bicyclo[1.1.1]pentane-1-carbonitrile], the EC50 is 19 nM.

As to `Cc1cc(/C=C/C#N)cc(C)c1Oc1nc(NC23CC(C#N)(C2)C3)nc2snc(C)c12` [Compound 296, (E)-3-((4-(4-(2-cyanovinyl)-2,6-dimethylphenoxy)-3-methylisothiazolo[5,4-d]pyrimidin-6-yl)amino)bicyclo[1.1.1]pentane-1-carbonitrile], the response was half-maximal at 59.5 nM (EC50).

Regarding `Cc1cc(/C=C/C#N)cc(C)c1Oc1nc(NC23CC(C#N)(C2)C3)nc2c1[C@@H]1OCCCN1C2=O` [Compound 279, (S,E)-3-((4-(4-(2-cyanovinyl)-2,6-dimethylphenoxy)-10-oxo-4b,7,8,10-tetrahydro-6H-pyrimido[5′,4′:3,4]pyrrolo[2,1-b][1,3]oxazin-2-yl)amino)bicyclo[1.1.1]pentane-1-carbonitrile], the midpoint of the response, the EC50, lay at 57.2 nM.

For `Cc1cc(/C=C/C#N)cc(C)c1Oc1nc(NC23CC(C#N)(C2)C3)nc2c1C1(C)O[C@@H](C)CCN1C2=O` (stereo partly drawn) [Example 241, 3-(((6S)-4-(4-((E)-2-cyanovinyl)-2,6-dimethylphenoxy)-4b,6-dimethyl-10-oxo-4b,7,8,10-tetrahydro-6H-pyrimido[5′,4′:3,4]pyrrolo[2,1-b][1,3]oxazin-2-yl)amino)bicyclo[1.1.1]pentane-1-carbonitrile], the EC50 is 34.8 nM.

`Cc1cc(/C=C/C#N)cc(C)c1Cc1nc(NC23CC(C#N)(C2)C3)nc2nn(C)cc12` [Compound 277, (E)-3-((4-(4-(2-cyanovinyl)-2,6-dimethylbenzyl)-2-methyl-2H-pyrazolo[3,4-d]pyrimidin-6-yl)amino)bicyclo[1.1.1]pentane-1-carbonitrile] displayed an EC50 of 49.9 nM.

In turn, `Cc1cc(/C=C/C#N)cc(C)c1Oc1nc(NC23CC(C#N)(C2)C3)nc2nc3n(c12)C[C@@H](F)CO3` (single isomer, unassigned) [Compound 191] displayed an EC50 of 51.8 nM.

`Cc1cc(/C=C/C#N)cc(C)c1Oc1nc(NC23CC(C#N)(C2)C3)nc2c1C(C)N(CCN1CCOCC1)C2=O` (stereo not drawn) [Example 214, (E)-3-((4-(4-(2-cyanovinyl)-2,6-dimethylphenoxy)-5-methyl-6-(2-morpholinoethyl)-7-oxo-6,7-dihydro-5H-pyrrolo[3,4-d]pyrimidin-2-yl)amino)bicyclo[1.1.1]pentane-1-carbonitrile] showed an EC50 of 59.1 nM.

In the case of `Cc1cc(/C=C/C#N)cc(C)c1Oc1nc(NC23CC(C#N)(C2)C3)nc2c1C(C)N(c1cnn(C3CCC3)c1)C2=O` (stereo not drawn) [Example 227, (E)-3-((4-(4-(2-cyanovinyl)-2,6-dimethylphenoxy)-6-(1-cyclobutyl-1H-pyrazol-4-yl)-5-methyl-7-oxo-6,7-dihydro-5H-pyrrolo[3,4-d]pyrimidin-2-yl)amino)bicyclo[1.1.1]pentane-1-carbonitrile], the EC50 was found to be 115 nM.

For `Cc1cc(/C=C/C#N)cc(C)c1Oc1nc(NC23CC(C#N)(C2)C3)nc2c1c(Cl)nn2C` (single isomer, unassigned) [Compound 96, (E)-3-((3-chloro-4-(4-(2-cyanovinyl)-2,6-dimethylphenoxy)-1-methyl-11H-pyrazolo[3,4-d]pyrimidin-6-yl)amino)bicyclo[1.1.1]pentane-1-carbonitrile], the EC50 came out at 360 nM.

Consider `Cc1cc(/C=C/C#N)cc(C)c1Oc1nc(NC23CC(C#N)(C2)C3)nc2c1C(O)(C(F)F)NC2=O` (stereo not drawn) [Example 229, (E)-3-((4-(4-(2-cyanovinyl)-2,6-dimethylphenoxy)-5-(difluoromethyl)-5-hydroxy-7-oxo-6,7-dihydro-5H-pyrrolo[3,4-d]pyrimidin-2-yl)amino)bicyclo[1.1.1]pentane-1-carbonitrile], for which a half-maximal effect (EC50) was put at 123 nM.

`Cc1cc(/C=C/C#N)cc(C)c1Oc1nc(NC23CC(C#N)(C2)C3)nc2c1C(C)N(CCc1cnn(C)c1)C2=O` (stereo not drawn) [Example 211, (E)-3-((4-(4-(2-cyanovinyl)-2,6-dimethylphenoxy)-5-methyl-6-(2-(1-methyl-1H-pyrazol-4-yl)ethyl)-7-oxo-6,7-dihydro-5H-pyrrolo[3,4-d]pyrimidin-2-yl)amino)bicyclo[1.1.1]pentane-1-carbonitrile] yielded an EC50 of 54.5 nM.

`CCc1cc(/C=C/C#N)cc(Cl)c1Oc1nc(NC23CC(C#N)(C2)C3)nc2[nH]nc(C)c12` [Example 1, (E)-3-((4-(2-chloro-4-(2-cyanovinyl)-6-ethylphenoxy)-3-methyl-1H-pyrazolo[3,4-d]pyrimidin-6-yl)amino)bicyclo[1.1.1]pentane-1-carbonitrile] showed an EC50 of 46.7 nM.

In turn, `Cc1cc(/C=C/C#N)cc(C)c1Oc1nc(NC23CC(C#N)(C2)C3)nc2nc(-c3ccno3)[nH]c12` [Compound 73, (E)-3-((6-(4-(2-cyanovinyl)-2,6-dimethylphenoxy)-8-(isoxazol-5-yl)-7H-purin-2-yl)amino)bicyclo[1.1.1]pentane-1-carbonitrile] displayed an EC50 of 285 nM.

On to `Cc1cc(/C=C/C#N)cc(C)c1Oc1nc(NC23CC(C#N)(C2)C3)nc2c1C(C)N(C1CCC1)C2=O` (stereo not drawn) [Example 216, (E)-3-((4-(4-(2-cyanovinyl)-2,6-dimethylphenoxy)-6-cyclobutyl-5-methyl-7-oxo-6,7-dihydro-5H-pyrrolo[3,4-d]pyrimidin-2-yl)amino)bicyclo[1.1.1]pentane-1-carbonitrile], for which a half-maximal effect (EC50) was put at 77.8 nM.

As for `Cc1cc(/C=C/C#N)cc(C)c1Oc1nc(NC23CC(C#N)(C2)C3)nc2nc(C)n(CC(F)F)c12` (single isomer, unassigned) [Compound 20, (E)-3-((6-(4-(2-cyanovinyl)-2,6-dimethylphenoxy)-7-(2,2-difluoroethyl)-8-methyl-7H-purin-2-yl)amino)bicyclo[1.1.1]pentane-1-carbonitrile], the EC50 came to 25.5 nM.

Molecule `CCc1cc(/C=C/C#N)cc(Cl)c1Oc1nc(NC23CC(C#N)(C2)C3)nc2nn(C)cc12` [Compound 7, (E)-3-((4-(2-chloro-4-(2-cyanovinyl)-6-ethylphenoxy)-2-methyl-2H-pyrazolo[3,4-d]pyrimidin-6-yl)amino)bicyclo[1.1.1]pentane-1-carbonitrile] returned an EC50 of 21.4 nM.

`Cc1cc(/C=C/C#N)cc(C)c1Oc1nc(NC23CC(C#N)(C2)C3)nc2[nH]nc(Cl)c12` [Compound 94, (E)-3-((3-chloro-4-(4-(2-cyanovinyl)-2,6-dimethylphenoxy)-1H-pyrazolo[3,4-d]pyrimidin-6-yl)amino)bicyclo[1.1.1]pentane-1-carbonitrile] had an EC50 of 72.5 nM.

`Cc1cc(/C=C/C#N)cc(C)c1Oc1nc(NC23CC(C#N)(C2)C3)nc2cn(C(C)C)nc12` [Compound 108] returned an EC50 of 611 nM.

As to `CO[C@@H]1COC2(C)c3c(Oc4c(C)cc(/C=C/C#N)cc4C)nc(NC45CC(C#N)(C4)C5)nc3C(=O)N2C1` (single isomer, unassigned) [Example 244], the EC50 was found to be 111 nM.

On to `Cc1cc([C@H]2C[C@@H]2C#N)cc(C)c1Oc1nc(NC23CC(C#N)(C2)C3)nc2nn(C)cc12` (racemic) [Compound 132, (rac)-3-((4-(4-((1S,2S)-2-cyanocyclopropyl)-2,6-dimethylphenoxy)-2-methyl-2H-pyrazolo[3,4-d]pyrimidin-6-yl)amino)bicyclo[1.1.1]pentane-1-carbonitrile], for which the EC50 was determined as 267 nM.

`Cc1cc(/C=C/C#N)cc(C)c1Oc1nc(NC23CC(C#N)(C2)C3)nc2nn(-c3ccn(C)n3)cc12` [Example 231, (E)-3-((4-(4-(2-cyanovinyl)-2,6-dimethylphenoxy)-2-(1-methyl-1H-pyrazol-3-yl)-2H-pyrazolo[3,4-d]pyrimidin-6-yl)amino)bicyclo[1.1.1]pentane-1-carbonitrile]: the midpoint of the response, the EC50, lay at 31.1 nM.

`C=Cc1n[nH]c2nc(NC34CC(C#N)(C3)C4)nc(Oc3c(C)cc(/C=C/C#N)cc3C)c12` [Compound 105, (E)-3-((4-(4-(2-cyanovinyl)-2,6-dimethylphenoxy)-3-vinyl-1H-pyrazolo[3,4-d]pyrimidin-6-yl)amino)bicyclo[1.1.1]pentane-1-carbonitrile]: the midpoint of the response, the EC50, lay at 182 nM.

The molecule `Cc1cc(/C=C/C#N)cc(C)c1C(=O)c1nc(NC23CC(C#N)(C2)C3)nc2nn(C)cc12` [Compound 275, (E)-3-((4-(4-(2-cyanovinyl)-2,6-dimethylbenzoyl)-2-methyl-2H-pyrazolo[3,4-d]pyrimidin-6-yl)amino)bicyclo[1.1.1]pentane-1-carbonitrile] came in with an EC50 of 113 nM.

In the case of `Cc1cc(/C=C/C#N)cc(C)c1Oc1nc(NC23CC(C#N)(C2)C3)nc2noc(C)c12` [Compound 111, (E)-3-((4-(4-(2-cyanovinyl)-2,6-dimethylphenoxy)-3-methylisoxazolo[3,4-d]pyrimidin-6-yl)amino)bicyclo[1.1.1]pentane-1-carbonitrile], a half-maximal response (EC50) required 30.6 nM.

The molecule `Cc1cc(/C=C/C#N)cc(Cl)c1Oc1nc(NC23CC(C#N)(C2)C3)nc2nn(C)cc12` [Compound 6, (E)-3-((4-(2-chloro-4-(2-cyanovinyl)-6-methylphenoxy)-2-methyl-2H-pyrazolo[3,4-d]pyrimidin-6-yl)amino)bicyclo[1.1.1]pentane-1-carbonitrile] returned an EC50 of 17.4 nM.

For the molecule `COCCn1cc(N2C(=O)c3nc(NC45CC(C#N)(C4)C5)nc(Oc4c(C)cc(/C=C/C#N)cc4C)c3C2C)cn1` (stereo not drawn) [Example 219, (E)-3-((4-(4-(2-cyanovinyl)-2,6-dimethylphenoxy)-6-(1-(2-methoxyethyl)-1H-pyrazol-4-yl)-5-methyl-7-oxo-6,7-dihydro-5H-pyrrolo[3,4-d]pyrimidin-2-yl)amino)bicyclo[1.1.1]pentane-1-carbonitrile], the EC50 worked out at 40.7 nM.

Molecule `Cc1cc(/C=C/C#N)cc(C)c1Oc1nc(NC23CC(C#N)(C2)C3)nc2nc(C3CCOCC3)n(C(F)F)c12` [Compound 176, (E)-3-((6-(4-(2-cyanovinyl)-2,6-dimethylphenoxy)-7-(difluoromethyl)-8-(tetrahydro-2H-pyran-4-yl)-7H-purin-2-yl)amino)bicyclo[1.1.1]pentane-1-carbonitrile] had an EC50 of 45 nM.

For the origin of these results see patent US20250333424A1, “ANTIVIRAL COMPOUNDS” (Gilead Sciences, Inc., priority 2024, published 2025).
